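In this assay, cells in 96-well plates receive the compound at five concentrations for 48 hours. Endpoints are linearly interpolated between the surrounding concentrations. Abbreviation: GI50, concentration required for 50% inhibition of growth.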 Calls of active or inactive are those of the source. Rule as the data show it: active = GI50 up to about 1.1 µM and inactive = higher.
What was measured:
Assay in all cases: NCI tumour cell line growth inhibition, 48 h
DMS-114 = system: DMS-114
SNB-78 = system: SNB-78
LXFL 529 = system: LXFL 529
M19-MEL = system: M19-MEL
DLD-1 = system: DLD-1
DMS-273 = system: DMS-273
XF498 = system: XF498
HOP-18 = system: HOP-18
RXF 631 = system: RXF 631

Row | SMILES | GI50 (DMS-114) | GI50 (SNB-78) | GI50 (LXFL 529) | GI50 (M19-MEL) | GI50 (DLD-1) | GI50 (DMS-273) | GI50 (XF498) | GI50 (HOP-18) | GI50 (RXF 631)
1 | C/C(CC(=O)Nc1cccc(Cl)c1C)=N\NC(=O)c1ccncc1 | > 100 µM (inactive) | > 100 µM (inactive) | > 100 µM (inactive) | > 100 µM (inactive) | > 100 µM (inactive) | > 100 µM (inactive) | > 100 µM (inactive) | – | –
2 | O=[N+]([O-])c1ccc(-n2nnc(C3=NCCCN3)c2-c2ccc(Cl)cc2)cc1 | – | > 100 µM (inactive) | > 100 µM (inactive) | 69.5 µM (inactive) | > 100 µM (inactive) | > 100 µM (inactive) | > 100 µM (inactive) | > 100 µM (inactive) | –
3 | C#CC1(O)c2ccccc2C(=O)c2ccccc21 | – | 35.9 µM (inactive) | > 100 µM (inactive) | > 100 µM (inactive) | – | > 100 µM (inactive) | 84.7 µM (inactive) | > 100 µM (inactive) | –
4 | OC12CCCCCC1(N1CCOCC1)c1ccccc12 (stereo unspecified) | > 100 µM (inactive) | > 100 µM (inactive) | > 100 µM (inactive) | > 100 µM (inactive) | – | > 100 µM (inactive) | – | > 100 µM (inactive) | –
5 | O=C1O[C@@H](c2ccccc2)C[C@H]1CN1CCOCC1 | 67 µM (inactive) | > 100 µM (inactive) | > 100 µM (inactive) | – | > 100 µM (inactive) | – | 81.8 µM (inactive) | – | > 100 µM (inactive)
6 | CCOC(=O)CC1=N/C(=N/C(=N)N[N+](=O)[O-])SC1 | – | > 100 µM (inactive) | > 100 µM (inactive) | > 100 µM (inactive) | > 100 µM (inactive) | > 100 µM (inactive) | – | > 100 µM (inactive) | –
7 | CC1(Br)CC2OC3(Br)C=CC(C)(O)C2(CC1=O)C3(C)C (stereo unspecified) | > 100 µM (inactive) | > 100 µM (inactive) | 98.9 µM (inactive) | – | 98.2 µM (inactive) | > 100 µM (inactive) | > 90.4 µM (inactive) | > 100 µM (inactive) | –
8 | Cc1ccc(C(=O)C(C2=Nc3nnc(N)n3C2=O)C2=Nc3nnc(N)n3C2=O)cc1 | > 100 µM (inactive) | > 100 µM (inactive) | > 100 µM (inactive) | > 100 µM (inactive) | > 100 µM (inactive) | > 100 µM (inactive) | > 100 µM (inactive) | – | –
9 | CC(C)C(=O)Nc1nc2c(ncn2C2OC(CO)C(O)C2O)c(=O)[nH]1 (stereo unspecified) | 67.1 µM (inactive) | > 100 µM (inactive) | > 100 µM (inactive) | > 100 µM (inactive) | > 100 µM (inactive) | > 100 µM (inactive) | > 100 µM (inactive) | > 100 µM (inactive) | > 100 µM (inactive)
10 | O=Cc1ccc2c(c1-c1c(C=O)ccc3c1OCO3)OCO2 | > 100 µM (inactive) | > 100 µM (inactive) | > 100 µM (inactive) | > 100 µM (inactive) | > 100 µM (inactive) | > 100 µM (inactive) | – | > 100 µM (inactive) | –
11 | COCC(OC)C(CC=C(C#N)C#N)OC (stereo unspecified) | > 100 µM (inactive) | > 100 µM (inactive) | > 100 µM (inactive) | > 100 µM (inactive) | – | > 100 µM (inactive) | > 100 µM (inactive) | – | –
12 | Cc1nc2ccccc2c(=O)n1/N=C(\N=N\c1cc(Cl)ccc1Cl)c1ccccc1 | 30.2 µM (inactive) | – | 36.5 µM (inactive) | 77.4 µM (inactive) | 45.6 µM (inactive) | 43.3 µM (inactive) | 61.2 µM (inactive) | 14.3 µM (inactive) | > 10 µM (inactive)
13 | CCN(CC)CCNc1ccc2nnn3c4ccc(OC)cc4c(=O)c1c23 | 8.89 µM (inactive) | 10.7 µM (inactive) | 9.62 µM (inactive) | 13.5 µM (inactive) | 5.05 µM (inactive) | – | – | 0.507 µM (active) | 3.83 µM (inactive)
14 | CC1SC2=NC3=C(c4ccccc4C3=O)C(c3ccc(Br)cc3)N2C1=O (stereo unspecified) | 31.2 µM (inactive) | – | 53 µM (inactive) | 56.9 µM (inactive) | 76 µM (inactive) | > 100 µM (inactive) | 43.8 µM (inactive) | – | –
15 | Cn1c(=O)nc2n(-c3cccc(Br)c3)c3ccccc3nc-2c1=O | 2.04 µM (inactive) | 12.2 µM (inactive) | 6.1 µM (inactive) | 1.43 µM (inactive) | 5.41 µM (inactive) | 3.1 µM (inactive) | 5.36 µM (inactive) | 5.9 µM (inactive) | –
16 | NC(=O)N1N=C2c3ccccc3OC[C@H]2[C@@H]1c1ccccc1 | 7.53 µM (inactive) | > 38.5 µM (inactive) | 31 µM (inactive) | 49.7 µM (inactive) | 6.5 µM (inactive) | 9.1 µM (inactive) | 10.7 µM (inactive) | 18.7 µM (inactive) | –
17 | CSc1nc(-c2ccccc2)c2c(n1)-c1ccccc1CC2 | > 100 µM (inactive) | – | > 100 µM (inactive) | > 100 µM (inactive) | > 100 µM (inactive) | – | > 100 µM (inactive) | > 100 µM (inactive) | > 100 µM (inactive)
18 | O=C1C2C(C(=O)N1O)N(Cc1ccccc1)C(=O)N2Cc1ccccc1 (stereo unspecified) | > 100 µM (inactive) | > 100 µM (inactive) | > 100 µM (inactive) | > 100 µM (inactive) | > 100 µM (inactive) | – | > 100 µM (inactive) | – | –
19 | CCOC(=O)C1(C(=O)OCC)OC(=O)NC2=C1CCCC2 | > 100 µM (inactive) | > 100 µM (inactive) | > 100 µM (inactive) | > 100 µM (inactive) | > 100 µM (inactive) | > 100 µM (inactive) | > 100 µM (inactive) | 19.5 µM (inactive) | –
20 | COc1ccc2c(c1)CCc1c(-c3n[nH]c4c3CCc3cc(OC)ccc3-4)n[nH]c1-2 | 55.5 µM (inactive) | 44.1 µM (inactive) | 33.1 µM (inactive) | 33 µM (inactive) | 54.5 µM (inactive) | 17.4 µM (inactive) | 32.8 µM (inactive) | 25.8 µM (inactive) | –
21 | O=C(Sc1sc(=S)sc1SC(=O)c1ccccc1)c1ccccc1 | > 100 µM (inactive) | > 100 µM (inactive) | > 100 µM (inactive) | 21.7 µM (inactive) | – | 53 µM (inactive) | 55.2 µM (inactive) | > 100 µM (inactive) | –
22 | CC(=O)OC1=CC2(OC(C)=O)CC(C)(C)C1C1C(=O)C=CC(=O)C12 (stereo unspecified) | > 100 µM (inactive) | > 100 µM (inactive) | > 100 µM (inactive) | > 100 µM (inactive) | > 100 µM (inactive) | > 100 µM (inactive) | > 100 µM (inactive) | – | > 100 µM (inactive)
23 | N#CCCCCCOCCOCCOCCOCCOCCCCCC#N | > 100 µM (inactive) | – | > 100 µM (inactive) | > 100 µM (inactive) | > 100 µM (inactive) | > 100 µM (inactive) | – | > 100 µM (inactive) | > 100 µM (inactive)
24 | c1ccc2cc3c(cc2c1)OP1(Oc2cccc4cccnc24)(O3)Oc2cc3ccccc3cc2O1 | 1.79 µM (inactive) | 26.4 µM (inactive) | – | 9.89 µM (inactive) | 4.2 µM (inactive) | 3.49 µM (inactive) | 3.71 µM (inactive) | 9.48 µM (inactive) | –
25 | O=c1oc2cc(O)ccc2c2oc3cc(O)ccc3c12 [COUMESTROL] | 9.89 µM (inactive) | 64.4 µM (inactive) | – | 92.7 µM (inactive) | 62.5 µM (inactive) | 54.7 µM (inactive) | > 19.8 µM (inactive) | > 125 µM (inactive) | –
